We go through ten compounds from patent publication US7125891B2, “Tripeptidyl peptidase inhibitors” (Janssen Pharmaceutica N.V., priority 2000, dated 2006).

Where a name gives a salt, the structure may show the parent alone.

`CCc1cn(C)c(C2Cc3ccccc3N2C(C)=O)n1` (stereo not shown) came in with a melting point of 105 to 106 °C.
Then `CCCc1cnc(C2Cc3ccccc3N2C(=O)C(C)N(C)C(=O)OC(C)C)[nH]1` (stereo not shown), with 77 to 80 °C; and `CCc1cnc(C2Cc3ccccc3N2C(=O)Nc2ccccc2[N+](=O)[O-])[nH]1` (stereo not shown), with 208 to 209 °C; and `CCCc1cnc(C2Cc3ccccc3N2C(C)=O)[nH]1` (stereo not shown), with 174 to 175 °C.
`CCCc1nc(C2Cc3ccccc3N2C(C)=O)no1` (stereo not shown) gave a melting point of 93 to 94 °C.
As for `CCCc1cnc(C2Cc3ccccc3N2C(=O)C(N)CC)[nH]1` (stereo not drawn) (as salt: HCl) (hydrate or solvate) [Compound 15, [2S-[1(R*),2R*]]-α-ethyl-2,3-dihydro-β-oxo-2-(4-propyl-1H-imidazol-2-yl)-1H-indole-1-ethanamine dihydrochloride dihydrate], the figure is 132 to 140 °C; as for `CCc1cnc(C2Cc3ccccc3N2C(=O)Nc2ccccc2N)[nH]1` (stereo not shown) (as salt: trifluoroacetate), 106 to 108 °C; as for `CCc1cnc(C2Cc3ccccc3N2C(=O)c2ccccc2C(=O)O)[nH]1` (stereo not shown) (as salt: trifluoroacetate), 98 to 103 °C.
Consider `NCC(=O)N1c2ccccc2CC1c1nc2cc(C(=O)O)ccc2[nH]1` (stereo not shown) (as salt: trifluoroacetate) (hydrate or solvate) [Compound 62, 2-[1-(aminoacetyl)-2,3-dihydro-1H-indol-2-yl]-1H-benzimidazole-5-carboxylic acid monohydrate trifluoroacetate (1:2)], for which the melting point is 208 to 211 °C.
Then `CCCc1nc(C2Cc3ccccc3N2C(=O)CN)no1` (stereo not drawn) (as salt: trifluoroacetate) [Compound 90, 2,3-dihydro-β-oxo-2-(5-propyl-1,2,4-oxadiazol-3-yl)-1H-indole-1-ethanamine trifluoroacetate (1:1)], with 160 to 162 °C.

As a reminder, the melting point is the temperature, or range, at which the solid turns liquid.
